Reference: patent US20230390260A1, “METHOD OF TREATMENT OF PAIN THROUGH BUCCAL ADMINISTRATION OF FLUNIXIN” (Intervet Inc., priority 2020, published 2023)
Read-outs that look alike come from different tables or passages of the source.

What was measured:
[1] = bovine species, same (transdermal) formulation; cited from earlier work
[2] = Pharmacokinetic study of flunixin in young piglets, comparing administration routes (plasma LC-MS/MS); assay type: in vivo, piglets (swine); details: pig, read-out: % F (bioavailability)
Experimental: A pharmacokinetic study was conducted to compare the bioavailability of flunixin when administered buccally, intramuscularly, IV, and the transdermal routes via the perineum, ear canal, rectum, and midline in young piglets.
Piglets were administered either Banamine® Transdermal (buccal, perineum, ear canal, rectum, and midline) or Banamine®-S Injectable Solution (intravenous and intramuscular) at 5 to 6 days of age. Blood samples were collected from the piglets at 5 min, 15 min, 1 h, 2 h, 4 h, 8 h, 12 h, 24 h, 36 h, and 48 h for those treated with Banamine® Transdermal, and at 1 h, 2 h, 4 h, 8 h, 12 h, 24 h, 36 h, 48 h, 60 h, and 72 h for those treated with Banamine®-S Injectable Solution. Plasma samples were analyzed for flunixin concentration using an GLP-validated LC/MS-MS method. Swine plasma (K2EDTA) is extracted by protein precipitation with an acetonitrile solution of the internal standard (Flunixin-d3). The samples are then centrifuged, and the resulting supernatants are analyzed by LC-MS/MS using selective reaction monitoring in negative electrospray ionization mode. The ionic transitions monitored are m/z 295 to m/z 251 for Flunixin and m/z 298 to m/z 254 for the internal standard.
The following key pharmacokinetic parameters were calculated for each group (mean±standard error): […]

Structure (SMILES): Cc1c(Nc2ncccc2C(=O)O)cccc1C(F)(F)F [flunixin, Flunixin]
- bioavailability [1]: 44%
- bioavailability ([2]; im, Intramuscular, Banamine-S Injectable Solution, piglets): 71%
- bioavailability ([2]; other: buccal, Buccal, Banamine Transdermal, piglets): 40%
- bioavailability ([2]; topical or ocular, Midline, Banamine Transdermal, piglets (swine)): 5%
